In US10842779B2, “Heterocyclic compounds and their use in preventing or treating bacterial infections” (priority 2015, dated 2020):
Read-outs that look alike come from different tables or passages of the source.

How the values were obtained:
K. pneumoniae = test: MIC of compounds alone, broth microdilution; type: cell-based; settings: Klebsiella pneumoniae, alone, read-out: MIC
Procedure: (§1) Method 2: MIC of Compounds and Synergy with Ceftazidime Against Bacterial Isolates (Table 2 and 3)
(§2) Compounds of the present invention were assessed against genotyped bacterial strains alone or in combination with the β-lactam ceftazidime. In the assays, MICs of said compounds, or of ceftazidime at fixed concentrations of said compounds were determined by the broth microdilution method according to the Clinical Laboratory Standards Institute (CLSI—M7-A7). Briefly, compounds alone according to the invention were prepared in DMSO and spotted (2 μL each) on sterile polystyrene plates (Corning, 3788). Compounds and ceftazidime dilutions were prepared in DMSO and spotted (1 μL each) on sterile polystyrene plates (Corning, 3788). Log phase bacterial suspensions were adjusted to a final density of 5×10^5 cfu/mL in cation-adjusted Mueller-Hinton broth (Beckton-Dickinson) and added to each well (98 μL). Microplates were incubated for 16-20 h at 35° C. in ambient air. The MIC of the compounds was defined as the lowest concentration of said compounds that prevented bacterial growth as read by visual inspection. The MIC of ceftazidime at each compound concentration was defined as the lowest concentration of ceftazidime that prevented bacterial growth as read by visual inspection.

S. marcescens = test: MIC of compounds alone, broth microdilution; type: cell-based; settings: Serratia marcescens, SMA UFR30, beta-lactamases OXA-405
Procedure: as §1, §2

C. murliniae = test: MIC of compounds alone, broth microdilution; type: cell-based; settings: alone; CMU 210102; beta-lactamases VIM-4; read-out: MIC
Procedure: as §1, §2

E. cloacae = test: MIC of compounds alone, broth microdilution; type: cell-based; settings: Enterobacter cloacae
Procedure: as §1, §2

M. morganii = test: MIC of compounds alone, broth microdilution; type: cell-based; settings: Morganella morganii, MMO 200321, beta-lactamases TEM-1, CTX-M-15 OXA-1
Procedure: as §1, §2

C. freundii = test: MIC of compounds alone, broth microdilution; type: cell-based; settings: Citrobacter freundii, alone, read-out: MIC
Procedure: as §1, §2

CTX-M-15 = target: T1, CTX-M-15 (Escherichia coli, UniProt Q9EXV5); test: β-Lactamase inhibitory activity, nitrocefin hydrolysis; type: biochemical; settings: class (A); 30 min pre-incubation
T1 construct: made in house; host or cells: E. coli

OXA-1 = target: T2, OXA-1 (Escherichia coli, UniProt P13661); test: as above; type: biochemical; settings: class (D); 30 min pre-incubation
T2 construct: made in house; host or cells: E. coli

OXA-48 = target: T3, OXA-48 (Klebsiella pneumoniae, UniProt Q6XEC0); test: as above; type: biochemical; settings: class (D); 30 min pre-incubation
T3 construct: made in house; host or cells: E. coli

O=C(O)C(F)(F)F.O=C1N2C[C@H](c3scnc3[C@H]2c2ncc[nH]2)N1OS(=O)(=O)[O-].[Na+] (relative stereo) [Example 1, Sodium and 2,2,2-trifluoroacetate [trans-7-(1H-imidazol-3-ium-2-yl)-9-oxo-3-thia-5,8,10-triaza-tricyclo[6.2.1.0^2,6]undeca-2(6),4-dien-10-yl]sulfate]
MIC (K. pneumoniae; KPN ARA, beta-lactamases TEM-1, SHV-11, CTX-M-15 OXA-1 OXA-48): 4 µg/mL
MIC (K. pneumoniae; KPN LIB, beta-lactamases SHV-11 OXA-48): 2 µg/mL
MIC (K. pneumoniae; KPN UFR22_O, beta-lactamases TEM-1, SHV-1 OXA-48): 4 µg/mL
MIC (K. pneumoniae; KPN UFR24, beta-lactamases TEM-1, SHV-2, SHV-11 OXA-1 OXA-48 OXA-47): 8 µg/mL
MIC (K. pneumoniae; KPN UFR25, beta-lactamases TEM-1, SHV-11, CTX-M-15 OXA-162): 2 µg/mL
MIC (K. pneumoniae; KPN UFR27, beta-lactamases TEM-1, SHV-28, CTX-M-15 OXA-204): 4 µg/mL
MIC (K. pneumoniae; KPN UFR28, beta-lactamases TEM-1, SHV-1, CTX-M-15 OXA-1 OXA-232): 2 µg/mL
MIC (K. pneumoniae; KPN UFR42, beta-lactamases SHV-2, CTX-M-15 OXA-1 OXA-181 NDM-1): 4 µg/mL
MIC (K. pneumoniae; KPN UFR43, beta-lactamases SHV-11, CTX-M-15 CMY-2 OXA-1 NDM-1): 16 µg/mL
MIC (K. pneumoniae; KPN UFR53, beta-lactamases TEM-1 IMP-1): 4 µg/mL
MIC (K. pneumoniae; KPN UFR65, beta-lactamases TEM-1, SHV-11 KPC-2): 16 µg/mL
MIC (K. pneumoniae; KPN UFR66, beta-lactamases TEM-1, SHV-11, CTX-M-15 KPC-2): 8 µg/mL
MIC (K. pneumoniae; KPN UFR68, beta-lactamases TEM-1, SHV-11, CTX-M-15 KPC-3): 8 µg/mL
MIC (K. pneumoniae; KPN UFR77, beta-lactamases CMY-2): 4 µg/mL
MIC (K. pneumoniae; KPN UFR79, beta-lactamases DHA-1 OXA-1): 4 µg/mL
MIC (K. pneumoniae; KPN UFR80, beta-lactamases SHV-11 DHA-1 OXA-1): 1 µg/mL
MIC (K. pneumoniae; KPN UFR81, beta-lactamases TEM-1, SHV-1 DHA-1 OXA-48): 32 µg/mL
MIC (S. marcescens): 16 µg/mL
MIC (C. murliniae): 4 µg/mL
MIC (E. cloacae; ECL 2185D, beta-lactamases OXA-163, read-out: MIC): 8 µg/mL
MIC (E. cloacae; ECL 190310, beta-lactamases AmpC, read-out: MIC): 4 µg/mL
MIC (E. cloacae; ECL 190408, beta-lactamases TEM-1, CTX-M-15 OXA-1, read-out: MIC): 0.5 µg/mL
MIC (E. cloacae; ECL 200138, beta-lactamases AmpC, read-out: MIC): 8 µg/mL
MIC (E. cloacae; ECL 200322, beta-lactamases TEM-1, CTX-M-15 OXA-1, read-out: MIC): 1 µg/mL
MIC (E. cloacae; ECL 260033, beta-lactamases AmpC, read-out: MIC): 8 µg/mL
MIC (E. cloacae; ECL 260253, beta-lactamases TEM-1 KPC-3, read-out: MIC): 8 µg/mL
MIC (E. cloacae; ECL 260323, beta-lactamases AmpC, read-out: MIC): 4 µg/mL
MIC (E. cloacae; ECL 260508, beta-lactamases TEM-1, CTX-M-15, read-out: MIC): 1 µg/mL
MIC (E. cloacae; ECL HAN, beta-lactamases OXA-35, read-out: MIC): 8 µg/mL
MIC (E. cloacae; ECL NEM146383, beta-lactamases AmpC, read-out: MIC): 2 µg/mL
MIC (E. cloacae; ECL P99, beta-lactamases AmpC, read-out: MIC): 4 µg/mL
MIC (E. cloacae; ECL UFR12, beta-lactamases CTX-M-9 OXA-48, read-out: MIC): 2 µg/mL
MIC (E. cloacae; ECL UFR13, beta-lactamases TEM-1, SHV-12, CTX-M-9 OXA-48, read-out: MIC): 2 µg/mL
MIC (E. cloacae; ECL UFR14, beta-lactamases TEM-1, SHV-12, CTX-M-15 DHA-1 OXA-1 OXA-48, read-out: MIC): 8 µg/mL
MIC (E. cloacae; ECL UFR38, beta-lactamases CTX-M-15 NDM-1, read-out: MIC): 1 µg/mL
MIC (E. cloacae; ECL UFR51, beta-lactamases SHV-12 IMP-8, read-out: MIC): 0.5 µg/mL
MIC (E. cloacae; ECL UFR60, beta-lactamases TEM-1, CTX-M-15 KPC-2, read-out: MIC): 8 µg/mL
MIC (E. cloacae; ECL UFR70, beta-lactamases TEM-1, CTX-M-15 CMY-2 OXA-1, read-out: MIC): 1 µg/mL
MIC (E. cloacae; ECL UFR84, beta-lactamases TEM-1 AmpC OXA-1, read-out: MIC): 8 µg/mL
MIC (E. cloacae; ECL UFR85, beta-lactamases TEM-1, CTX-M-15 AmpC, read-out: MIC): 2 µg/mL
MIC (M. morganii): 32 µg/mL
MIC (C. freundii; CFR UFR10, beta-lactamases OXA-48): 1 µg/mL
MIC (C. freundii; CFR UFR11, beta-lactamases TEM-1 OXA-1 OXA-48): 8 µg/mL
MIC (C. freundii; CFR UFR37, beta-lactamases TEM-1, CTX-M-15 NDM-1): 2 µg/mL
IC50 (CTX-M-15): 2.7 nM
IC50 (OXA-1): 190 nM
IC50 (OXA-48): 8.4 nM
